Organism: Rattus norvegicus
Assay: Open TG-GATES - Regimen: Single
Assay type: toxicity, organism-based, Sprague-Dawley
Design: regimen Single, gender Male, age 6 weeks
Conditions: in vivo, po, 10 mg/kg, route gavage, dose level Low; for APTT / Bas / Eos / Fbg / Hb / Ht / Lym / MCH / MCHC / MCV / Mono / Neu / PT / Plat / RBC / Ret / WBC: tissue Blood; for KIDNEY_L / KIDNEY_R / KIDNEY_TOTAL: tissue Kidney; for LIVER: tissue Liver; for ALP / ALT / AST / BUN / CRE / Ca / Cl / DBIL / GLC / IP / K / LDH / Na / PL / RALB / TBIL / TC / TG / TP / gamma-GTP: tissue Plasma

COc1cc([C@@H]2c3cc4c(cc3[C@@H](O[C@@H]3O[C@@H]5CO[C@@H](C)O[C@H]5[C@H](O)[C@H]3O)[C@H]3COC(=O)[C@H]23)OCO4)cc(OC)c1O [ETOPOSIDE]
TERMINAL_BW (3 h): 200.9 g
APTT (3 h): 16.9 s
Bas (3 h): 0%
Eos (3 h): 1.2%
Fbg (3 h): 201 mg/dL
Hb (3 h): 13.4 g/dL
Ht (3 h): 39.9%
Lym (3 h): 76.4%
MCH (3 h): 22.1 pg
MCHC (3 h): 33.7%
MCV (3 h): 65.7 fL
Mono (3 h): 8%
Neu (3 h): 14.8%
PT (3 h): 12.3 s
Plat (3 h): 115.3 x10_4/uL
RBC (3 h): 606.6 x10_4/ul
Ret (3 h): 10.2%
WBC (3 h): 99.6 x10_2/uL
KIDNEY_L (3 h): 0.9 g
KIDNEY_R (3 h): 0.9 g
KIDNEY_TOTAL (3 h): 1.9 g
LIVER (3 h): 9.4 g
ALP (3 h): 896.4 IU/L
ALT (3 h): 34.2 IU/L
AST (3 h): 67.2 IU/L
BUN (3 h): 13 mg/dL
CRE (3 h): 0.5 mg/dL
Ca (3 h): 10.7 mg/dL
Cl (3 h): 104.6 meq/L
DBIL (3 h): 0.012 mg/dL
GLC (3 h): 192.8 mg/dL
IP (3 h): 9 mg/dL
K (3 h): 4.5 meq/L
LDH (3 h): 114.2 IU/L
Na (3 h): 141.8 meq/L
PL (3 h): 134 mg/dL
RALB (3 h): 3.5 g/dL
TBIL (3 h): 0.3 mg/dL
TC (3 h): 75.8 mg/dL
TG (3 h): 46.4 mg/dL
TP (3 h): 5.4 g/dL
gamma-GTP (3 h): 2 IU/L
TERMINAL_BW (6 h): 198.3 g
APTT (6 h): 16.9 s
Bas (6 h): 0%
Eos (6 h): 1%
Fbg (6 h): 194.4 mg/dL
Hb (6 h): 13.6 g/dL
Ht (6 h): 40.8%
Lym (6 h): 79.8%
MCH (6 h): 21.6 pg
MCHC (6 h): 33.3%
MCV (6 h): 64.9 fL
Mono (6 h): 6.4%
Neu (6 h): 13.2%
PT (6 h): 11.8 s
Plat (6 h): 110.4 x10_4/uL
RBC (6 h): 629.6 x10_4/ul
Ret (6 h): 9.8%
WBC (6 h): 78.9 x10_2/uL
KIDNEY_L (6 h): 1 g
KIDNEY_R (6 h): 1 g
KIDNEY_TOTAL (6 h): 2 g
LIVER (6 h): 8.6 g
ALP (6 h): 862.6 IU/L
ALT (6 h): 35 IU/L
AST (6 h): 66.8 IU/L
BUN (6 h): 10.8 mg/dL
CRE (6 h): 0.6 mg/dL
Ca (6 h): 10.5 mg/dL
Cl (6 h): 104.4 meq/L
DBIL (6 h): 0.02 mg/dL
GLC (6 h): 195.4 mg/dL
IP (6 h): 10.2 mg/dL
K (6 h): 4.6 meq/L
LDH (6 h): 99.4 IU/L
Na (6 h): 142 meq/L
PL (6 h): 128 mg/dL
RALB (6 h): 3.3 g/dL
TBIL (6 h): 0.4 mg/dL
TC (6 h): 72.2 mg/dL
TG (6 h): 42.6 mg/dL
TP (6 h): 5.2 g/dL
gamma-GTP (6 h): 0.8 IU/L
TERMINAL_BW (9 h): 198.7 g
APTT (9 h): 16.8 s
Bas (9 h): 0%
Eos (9 h): 0.6%
Fbg (9 h): 184.6 mg/dL
Hb (9 h): 13.5 g/dL
Ht (9 h): 39.7%
Lym (9 h): 77%
MCH (9 h): 22.1 pg
MCHC (9 h): 33.9%
MCV (9 h): 65.1 fL
Mono (9 h): 6.8%
Neu (9 h): 15.8%
PT (9 h): 11 s
Plat (9 h): 113.8 x10_4/uL
RBC (9 h): 611 x10_4/ul
Ret (9 h): 8.6%
WBC (9 h): 75.9 x10_2/uL
KIDNEY_L (9 h): 0.9 g
KIDNEY_R (9 h): 1 g
KIDNEY_TOTAL (9 h): 1.9 g
LIVER (9 h): 8.1 g
ALP (9 h): 777.2 IU/L
ALT (9 h): 32.8 IU/L
AST (9 h): 64.6 IU/L
BUN (9 h): 10.2 mg/dL
CRE (9 h): 0.6 mg/dL
Ca (9 h): 10.6 mg/dL
Cl (9 h): 105.6 meq/L
DBIL (9 h): 0.036 mg/dL
GLC (9 h): 198.8 mg/dL
IP (9 h): 10.4 mg/dL
K (9 h): 4.6 meq/L
LDH (9 h): 74.6 IU/L
Na (9 h): 143.4 meq/L
PL (9 h): 127.2 mg/dL
RALB (9 h): 3.4 g/dL
TBIL (9 h): 0.4 mg/dL
TC (9 h): 70.8 mg/dL
TG (9 h): 35.2 mg/dL
TP (9 h): 5.3 g/dL
gamma-GTP (9 h): 1.6 IU/L
TERMINAL_BW (24 h): 209.8 g
APTT (24 h): 15.8 s
Bas (24 h): 0%
Eos (24 h): 1%
Fbg (24 h): 206.6 mg/dL
Hb (24 h): 13.3 g/dL
Ht (24 h): 39.5%
Lym (24 h): 79.2%
MCH (24 h): 21.7 pg
MCHC (24 h): 33.7%
MCV (24 h): 64.3 fL
Mono (24 h): 6.6%
Neu (24 h): 13.6%
PT (24 h): 11.6 s
Plat (24 h): 108.6 x10_4/uL
RBC (24 h): 613.8 x10_4/ul
Ret (24 h): 8.9%
WBC (24 h): 89.3 x10_2/uL
KIDNEY_L (24 h): 1 g
KIDNEY_R (24 h): 1 g
KIDNEY_TOTAL (24 h): 2 g
LIVER (24 h): 10.2 g
ALP (24 h): 1017 IU/L
ALT (24 h): 33 IU/L
AST (24 h): 68 IU/L
CRE (24 h): 0.6 mg/dL
Ca (24 h): 11.1 mg/dL
Cl (24 h): 104.6 meq/L
DBIL (24 h): 0.012 mg/dL
GLC (24 h): 200.6 mg/dL
IP (24 h): 8.1 mg/dL
K (24 h): 4.6 meq/L
LDH (24 h): 109.6 IU/L
Na (24 h): 141.6 meq/L
PL (24 h): 155.2 mg/dL
RALB (24 h): 3.5 g/dL
TBIL (24 h): 0.3 mg/dL
TC (24 h): 87.8 mg/dL
TG (24 h): 82.6 mg/dL
TP (24 h): 5.5 g/dL
gamma-GTP (24 h): 1.4 IU/L
